Assay results taken from patent US11414385B2, “Compounds and methods for treating, detecting, and identifying compounds to treat apicomplexan parasitic diseases” (The University of Chicago, priority 2015, dated 2022).
Where two headings read alike, the source gives them in different places.

Tested on: T. gondii tachyzoites (RH-YFP strain)
Assay: In vitro challenge assay for Toxoplasma tachyzoites (RH-YFP in HFF, fluorescence)
Assay type: cell-based, Toxoplasma gondii
Summary of the method: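 Confluent HFF monolayers infected with 3200 RH-YFP tachyzoites for 1-2 h, then compounds added (screen at 10 μM-10 nM; follow-up 1 μM-31.25 nM) and incubated 72 h at 37 °C. YFP fluorescence served as the measure of parasite burden; IC50 by graphical analysis.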

[1] = Toxoplasma gondii, RH-YFP, read-out: Tachy IC50

Compound	IC50 (Toxoplasma gondii, read-out: IC50 against tachyzoites / active infection) [µM]	IC50 [1] [µM]	IC90 (Toxoplasma gondii, read-out: IC 90 against Toxoplasma gondii tachyzoites) [µM]	IC50 (Toxoplasma gondii, RH-YFP strain, read-out: T. gondii Tachyzoite IC50) [µM]	reduction of RH YFP tachyzoites in tissue culture (low nanoM levels)
Cc1[nH]c2c(c(=O)c1-c1ccc(Oc3ccc(OC(F)(F)F)cc3)cc1)CCCC2 [JAG21, 2-methyl-3-(4-(4-(trifluoromethoxy)phenoxy)phenyl)-5,6,7,8-tetrahydroquinolin-4(1H)-one]	0.188	0.09	< 0.125		
Cc1[nH]c2c(c(=O)c1-c1ccc(Oc3ccccc3)cc1)CCCC2 [MJM170]		0.03		0.03	markedly reduces RH YFP tachyzoites
